Values quoted from earlier work in patent US20050169997A1, “Method for preparing resinates” (priority 2002, published 2005).

solubility of indomethacin in water: 14 ppm
Structure (SMILES): COc1ccc2c(c1)c(CC(=O)O)c(C)n2C(=O)c1ccc(Cl)cc1 [indomethacin]
